Measured values published in patent US11149035B2, “Chemical compounds as H—PGDS inhibitors” (GlaxoSmithKline Intellectual Property Development Limited, priority 2017, dated 2021).

Molecular target: T1, haematopoietic prostaglandin D synthase (H-PGDS) (Homo sapiens, UniProt O60760)
T1 construct: Full length human H-PGDS cDNA (Invitrogen Ultimate ORF IOH13026) was amplified by PCR; 6-His (N); TEV protease cleavage site (N); made in house; host or cells: E. coli BL21 (DE3*)
Experiment: H-PGDS RapidFire high throughput mass spectrometry assay (conversion of PGH2 to PGD2)
Assay type: biochemical
Settings: 10 nM H-PGDS, PGH2 formed in situ by COX-2 from arachidonic acid; four parameter curve fit; read-out: Potency Range (mean pIC50) (converted)
Procedure: The H-PGDS RapidFire™ mass spectrometric assay monitors conversion of prostaglandin H2 (PGH2) to prostaglandin D2 (PGD2) by haematopoietic prostaglandin D synthase (H-PGDS). In the assay format described here, the substrate (PGH2) is formed in situ by the action of cyclooxygenase-2 on arachidonic acid. This first step is set up to be fast, and generates a burst of PGH2 at ˜10 μM. The PGH2 is then further converted to PGD2 by the H-PGDS enzyme. […] Plates are then read on the RapidFire™ high throughput solid phase extraction system (Agilent) which incorporates a solid phase extraction step coupled to a triple quadrupole mass spectrometer (AB SCIEX). Relative levels of PGD2 and PGF2α, which acts as a surrogate for substrate, are measured and a percent conversion calculated. Inhibitors are characterised as compounds which lower the conversion of PGH2 to PGD2.
Full length human H-PGDS cDNA (Invitrogen Ultimate ORF IOH13026) was amplified by PCR with the addition of a 5′ 6-His tag and TEV protease cleavage site. The PCR product was digested with NdeI and XhoI and ligated into pET22b+ (Merck Novagen®). Expression was carried out in E. coli strain BL21 (DE3*) using auto-induction Overnight Express™ Instant TB medium (Merck Novagen®) supplemented with 1% glycerol. The culture was first grown at 37° C. and the temperature was reduced to 25° C. when OD600 reached 2.0. Cells were harvested by centrifugation after a further 18 hours. 10 g of E. coli cell pellet was suspended to a total volume of 80 mL in lysis buffer (20 mM Tris-Cl pH 7.5, 300 mM NaCl, 20 mM imidazole, 5 mM β-mercaptoethanol, 10% glycerol). 1 mg/mL protease inhibitors (Protease Inhibitor Cocktail Set III, Merck Calbiochem®) and 1 mg/mL lysozyme were added to the cell suspension. The suspension was then sonicated for 5 min (UltraSonic Processor VCX 750, Cole-Parmer Instrument Co.) with a micro probe (50% amplitude, 10 sec on/off) and then centrifuged at 100,000 g for 90 minutes (at 4° C.). The supernatant was loaded onto a Ni-NTA HiTrap column (5 mL, GE Healthcare, pre-equilibrated in lysis buffer). The column was washed with 10 column volumes of lysis buffer and eluted with lysis buffer containing 500 mM imidazole. The pooled protein peak fractions were concentrated using a 10 kDa centrifugal filter at 3500 g and 4° C. (Amicon Ultra-15 centrifugal filter unit with Ultracel-10 membrane from Millipore). Further purification of the concentrated protein was carried out using gel filtration chromatography on a HiLoad 26/600 Superdex 75 preparative grade column (GE Healthcare Life Sciences) using 50 mM Tris pH 7.5, 50 mM NaCl, 1 mM dithiothreitol, 1 mM MgCl2. Fractions containing the protein were pooled, concentrated as described above, and stored at −80° C.
The full length human COX-2 gene (accession number L15326) was amplified by PCR to generate an EcoRI—HindIII fragment containing an in-frame FLAG tag. This was subcloned into pFastBac 1 (Invitrogen). The COX-2 FLAG plasmid was recombined into the baculovirus genome according to the BAC-to-BAC protocol described by Invitrogen. Transfection into Spodoptera frugiperda (Sf9) insect cells was performed using Cellfectin (Invitrogen), according to the manufacturer's protocol. Super Sf9 cells were cultured in EX420 media (SAFC Biosciences) to a density of approximately 1.5×10^6 cells/mL within a wave bioreactor. Recombinant virus was added at a Multiplicity of Infection (MOI) of 5 and the culture was allowed to continue for 3 days. Cells were harvested using a continuous feed centrifuge run at 2500 g at a rate of approximately 2 L/min with cooling. The resultant cell slurry was re-centrifuged in pots (2500 g, 20 min, 4° C.) and the cell paste was stored at −80° C. 342 g of cell paste was re-suspended to a final volume of 1600 mL in a buffer of 20 mM Tris-Cl pH 7.4, 150 mM NaCl, 0.1 mM EDTA, 1.3% w/v n-octyl-[…] containing 20 Complete EDTA-free Protease Inhibitor Cocktail tablets (Roche Applied Science). […]

T1 sequence (O60760 whole entry): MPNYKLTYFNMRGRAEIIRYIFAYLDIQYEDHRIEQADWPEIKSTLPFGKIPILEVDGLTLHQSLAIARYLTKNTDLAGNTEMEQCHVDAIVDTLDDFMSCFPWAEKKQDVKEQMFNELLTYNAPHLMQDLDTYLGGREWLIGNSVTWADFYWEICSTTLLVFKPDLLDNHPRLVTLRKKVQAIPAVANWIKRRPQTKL

SMILES	IC50
CC1CCN1c1ccc2cc(C(=O)N[C@H]3CC[C@H](C(C)(C)O)CC3)cnc2n1 (mixture of isomers) [Example 7, N-(trans-4-(2-Hydroxypropan-2-yl)cyclohexyl)-7-(2-methylazetidin-1-yl)-1,8-naphthyridine-3-carboxamide]	10 to 79.4 nM
CC1CCN1c1cc2ncc(C(=O)N[C@H]3CC[C@H](C(C)(C)O)CC3)cc2cn1 (mixture of isomers) [Example 11, N-(trans-4-(2-Hydroxypropan-2-yl)cyclohexyl)-7-(2-methylazetidin-1-yl)-1,6-naphthyridine-3-carboxamide]	10 to 79.4 nM
CC(C)(O)C1CC2(CC(NC(=O)c3cnc4cc(C5CC5)ncc4c3)C2)C1 (racemic) [Example 34, 7-Cyclopropyl-N-(6-(2-hydroxypropan-2-yl)spiro[3.3]heptan-2-yl)-1,6-naphthyridine-3-carboxamide]	< 10 nM
CC(N[C@H]1CC[C@H](NC(=O)c2cnc3cc(C4CC4)ncc3c2)CC1)C(F)F (mixture of isomers) [Example 39, 7-cyclopropyl-N-(trans-4-((1,1-difluoropropan-2-yl)amino)cyclohexyl)-1,6-naphthyridine-3-carboxamide]	10 to 79.4 nM
CC(C)(O)C1CC2(CC(NC(=O)c3cnc4nc(C5CC5)ccc4c3)C2)C1 (racemic) [Example 49, 7-Cyclopropyl-N-(6-(2-hydroxypropan-2-yl)spiro[3.3]heptan-2-yl)-1,8-naphthyridine-3-carboxamide]	10 to 79.4 nM
CC(N[C@H]1CC[C@H](NC(=O)c2cnc3nc(C4CC4)ccc3c2)CC1)C(F)F (mixture of isomers) [Example 57, 7-Cyclopropyl-N-(trans-4-((1,1-difluoropropan-2-yl)amino)cyclohexyl)-1,8-naphthyridine-3-carboxamide]	10 to 79.4 nM
CC(C)(O)[C@H]1CC[C@H](NC(=O)c2cnc3ccncc3c2)CC1 [Example 1, N-(trans-4-(2-Hydroxypropan-2-yl)cyclohexyl)-1,6-naphthyridine-3-carboxamide]	1260 to 10000 nM
CC(C)(O)[C@H]1CC[C@H](NC(=O)c2cnc3ncccc3c2)CC1 [Example 2, N-(trans-4-(2-Hydroxypropan-2-yl)cyclohexyl)-1,8-naphthyridine-3-carboxamide]	1260 to 10000 nM
CC(C)(O)[C@H]1CC[C@H](NC(=O)c2cnc3cc(N4CC(F)C4)ncc3c2)CC1 [Example 3, 7-(3-Fluoroazetidin-1-yl)-N-(trans-4-(2-hydroxypropan-2-yl)cyclohexyl)-1,6-naphthyridine-3-carboxamide]	10 to 79.4 nM
CC(C)(O)[C@H]1CC[C@H](NC(=O)c2cnc3cc(N4CCC4)ncc3c2)CC1 [Example 4, 7-(Azetidin-1-yl)-N-(trans-4-(2-hydroxypropan-2-yl)cyclohexyl)-1,6-naphthyridine-3-carboxamide]	< 10 nM
CC(C)(O)[C@H]1CC[C@H](NC(=O)c2cnc3nc(N4CCC4)ccc3c2)CC1 [Example 5, 7-(Azetidin-1-yl)-N-(trans-4-(2-hydroxypropan-2-yl)cyclohexyl)-1,8-naphthyridine-3-carboxamide]	< 10 nM
CC(C)(O)[C@H]1CC[C@H](NC(=O)c2cnc3nc(N4CC(F)C4)ccc3c2)CC1 [Example 6, 7-(3-Fluoroazetidin-1-yl)-N-(trans-4-(2-hydroxypropan-2-yl)cyclohexyl)-1,8-naphthyridine-3-carboxamide]	10 to 79.4 nM
C[C@@H]1CCN1c1ccc2cc(C(=O)N[C@H]3CC[C@H](C(C)(C)O)CC3)cnc2n1 [Example 8, N-(trans-4-(2-Hydroxypropan-2-yl)cyclohexyl)-7-((R)-2-methylazetidin-1-yl)-1,8-naphthyridine-3-carboxamide]	100 to 1000 nM
C[C@H]1CCN1c1ccc2cc(C(=O)N[C@H]3CC[C@H](C(C)(C)O)CC3)cnc2n1 [Example 9, N-(trans-4-(2-Hydroxypropan-2-yl)cyclohexyl)-7-((S)-2-methylazetidin-1-yl)-1,8-naphthyridine-3-carboxamide]	< 10 nM
CC(C)(O)[C@H]1CC[C@H](NC(=O)c2cnc3cc(C4CC4)ncc3c2)CC1 [Example 10, 7-Cyclopropyl-N-((trans)-4-(2-hydroxypropan-2-yl)cyclohexyl)-1,6-naphthyridine-3-carboxamide]	10 to 79.4 nM
C[C@@H]1CCN1c1cc2ncc(C(=O)N[C@H]3CC[C@H](C(C)(C)O)CC3)cc2cn1 [Example 12, N-(trans-4-(2-Hydroxypropan-2-yl)cyclohexyl)-7-((R)-2-methylazetidin-1-yl)-1,6-naphthyridine-3-carboxamide]	100 to 1000 nM
C[C@H]1CCN1c1cc2ncc(C(=O)N[C@H]3CC[C@H](C(C)(C)O)CC3)cc2cn1 [Example 13, N-(trans-4-(2-Hydroxypropan-2-yl)cyclohexyl)-7-((S)-2-methylazetidin-1-yl)-1,6-naphthyridine-3-carboxamide]	< 10 nM
CC(C)(O)[C@H]1CC[C@H](NC(=O)c2cnc3cc(NC4CC4)ncc3c2)CC1 [Example 14, 7-(Cyclopropylamino)-N-(trans-4-(2-hydroxypropan-2-yl)cyclohexyl)-1,6-naphthyridine-3-carboxamide]	10 to 79.4 nM
C[C@]1(O)C[C@@H](NC(=O)c2cnc3cc(N4CCC4)ncc3c2)C1 [Example 15, 7-(Azetidin-1-yl)-N-((1s,3s)-3-hydroxy-3-methylcyclobutyl)-1,6-naphthyridine-3-carboxamide]	10 to 79.4 nM
CC(C)(O)[C@H]1CC[C@H](NC(=O)c2cnc3nc(NCC(F)F)ccc3c2)CC1 [Example 16, 7-((2,2-Difluoroethyl)amino)-N-(trans-4-(2-hydroxypropan-2-yl)cyclohexyl)-1,8-naphthyridine-3-carboxamide]	100 to 1000 nM
CC(C)(O)[C@H]1CC[C@H](NC(=O)c2cnc3nc(NCC(F)(F)F)ccc3c2)CC1 [Example 17, N-(trans-4-(2-Hydroxypropan-2-yl)cyclohexyl)-7-((2,2,2-trifluoroethyl)amino)-1,8-naphthyridine-3-carboxamide]	100 to 1000 nM
C[C@]1(O)C[C@@H](NC(=O)c2cnc3nc(N4CCC4)ccc3c2)C1 [Example 18, 7-(Azetidin-1-yl)-N-((1s,3s)-3-hydroxy-3-methylcyclobutyl)-1,8-naphthyridine-3-carboxamide]	100 to 1000 nM
O=C(N[C@H]1CCNC1=O)c1cnc2nc(N3CCC3)ccc2c1 [Example 19, (S)-7-(Azetidin-1-yl)-N-(2-oxopyrrolidin-3-yl)-1,8-naphthyridine-3-carboxamide]	10 to 79.4 nM
O=C(N[C@H]1CCNC1=O)c1cnc2cc(N3CCC3)ncc2c1 [Example 20, (S)-7-(Azetidin-1-yl)-N-(2-oxopyrrolidin-3-yl)-1,6-naphthyridine-3-carboxamide]	10 to 79.4 nM
C[C@H]1CCN1c1cc2ncc(C(=O)N[C@H]3CCNC3=O)cc2cn1 [Example 22, 7-((S)-2-Methylazetidin-1-yl)-N—((S)-2-oxopyrrolidin-3-yl)-1,6-naphthyridine-3-carboxamide]	10 to 79.4 nM
C[C@H]1CCN1c1cc2ncc(C(=O)N[C@H]3C[C@@](C)(O)C3)cc2cn1 [Example 23, N-((1s,3R)-3-Hydroxy-3-methylcyclobutyl)-7-((S)-2-methylazetidin-1-yl)-1,6-naphthyridine-3-carboxamide]	100 to 1000 nM
